Data as given in US7192746B2, “α-Isomaltosyltransferase, process for producing the same and use thereof” (Kabushiki Kaisha Hayashibara Seibutsu Kagaku Kenkyujo, priority 2000, dated 2007).

Columns and labels:
Format in all cases: biochemical
[1] = tested on: α-isomaltosyl-transferring enzyme from Arthrobacter globiformis A19; assay: Action on saccharides (substrates, TLC); design: key: −: there was found no substrate change before and after the enzymatic reaction; +: there were found both the reduction of substrate and the formation of cyclotetrasaccharide after the enzymatic reaction; conditions: partially purified enzyme, 2 units/g substrate, 2% (w/v) substrate, 30° C., pH 6.0, 24 hours
Summary of the method: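 Substrates 2% (w/v), enzyme 2 units/g substrate, pH 6.0, 30° C., 24 h. Read-out: silica TLC, n-butanol:pyridine:water 6:4:1; sulfuric acid-methanol (total sugar) and diphenylamine-aniline (reducing sugar) staining, pre- vs post-reaction.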

[2] = tested on: α-isomaltosyl-transferring enzyme from Arthrobacter ramosus S1; assay: Action on saccharides (substrates, TLC); design: key: −: there was found no substrate change before and after the enzymatic reaction; +: there were found both the reduction of substrate and the formation of cyclotetrasaccharide after the enzymatic reaction; conditions: 2 units/g substrate, 2% (w/v) substrate, 30° C., pH 6.0, 24 hours
Summary of the method: (§1)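 Purified enzyme (partially purified for A. globiformis A19) at 2 units/g substrate acted on each saccharide at 2% (w/v), pH 6.0, 30° C., 24 h. Pre- and post-reaction mixtures ran on silica gel TLC in n-butanol/pyridine/water (6:4:1). Total sugars were stained by sulfuric acid-methanol and reducing sugars by diphenylamine-aniline.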

[3] = tested on: α-isomaltosyl-transferring enzyme from Bacillus globisporus C11; assay: Action on saccharides (substrates, TLC); design: key: −: there was found no substrate change before and after the enzymatic reaction; +: there were found both the reduction of substrate and the formation of cyclotetrasaccharide after the enzymatic reaction; conditions: 2 units/g substrate, 2% (w/v) substrate, 30° C., pH 6.0, 24 hours
Summary of the method: as §1

[4] = tested on: α-isomaltosyl-transferring enzyme from Bacillus globisporus C9; assay: Action on saccharides (substrates, TLC); design: key: −: there was found no substrate change before and after the enzymatic reaction; +: there were found both the reduction of substrate and the formation of cyclotetrasaccharide after the enzymatic reaction; conditions: 2 units/g substrate, 2% (w/v) substrate, 30° C., pH 6.0, 24 hours
Summary of the method: as §1

[5] = tested on: α-isomaltosyl-transferring enzyme from Bacillus globisporus N75; assay: Action on saccharides (substrates, TLC); design: key: −: there was found no substrate change before and after the enzymatic reaction; +: there were found both the reduction of substrate and the formation of cyclotetrasaccharide after the enzymatic reaction; conditions: 2 units/g substrate, 2% (w/v) substrate, 30° C., pH 6.0, 24 hours
Summary of the method: as §1

[6] = tested on: α-isomaltosyl-transferring enzyme from Arthrobacter globiformis A19; assay: Specificity to transferring acceptor; conditions: partially purified enzyme, panose as saccharide donor, 10 units/g substrate, 3.2% (w/v), 30° C., pH 6.0, 24 hours
Summary of the method: (§2)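 Scoring is presence or absence of a transfer product, detected by HPLC for tri- or larger saccharides and by GLC for smaller ones. Reactions: 3.2% (w/v) saccharide with panose as donor in equal amount, 10 units/g substrate of purified or partially purified enzyme, pH 6.0, 30 °C, 24 h.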

[7] = tested on: α-isomaltosyl-transferring enzyme from Arthrobacter ramosus S1; assay: Specificity to transferring acceptor; conditions: panose as saccharide donor, 10 units/g substrate, 3.2% (w/v), 30° C., pH 6.0, 24 hours
Summary of the method: as §2

[8] = tested on: α-isomaltosyl-transferring enzyme from Bacillus globisporus C11; assay: Specificity to transferring acceptor; conditions: panose as saccharide donor, 10 units/g substrate, 3.2% (w/v), 30° C., pH 6.0, 24 hours
Summary of the method: as §2

[9] = tested on: α-isomaltosyl-transferring enzyme from Bacillus globisporus C9; assay: Specificity to transferring acceptor; conditions: panose as saccharide donor, 10 units/g substrate, 3.2% (w/v), 30° C., pH 6.0, 24 hours
Summary of the method: as §2

[10] = tested on: α-isomaltosyl-transferring enzyme from Bacillus globisporus N75; assay: Specificity to transferring acceptor; conditions: panose as saccharide donor, 10 units/g substrate, 3.2% (w/v), 30° C., pH 6.0, 24 hours
Summary of the method: as §2

SMILES	Enzymatic action for forming cyclotetrasaccharide, Enzyme of Strain A19 [1]	Enzymatic action for forming cyclotetrasaccharide, Enzyme of Strain S1 [2]	Enzymatic action for forming cyclotetrasaccharide, Enzyme of Strain C11 [3]	Enzymatic action for forming cyclotetrasaccharide, Enzyme of Strain C9 [4]	Enzymatic action for forming cyclotetrasaccharide, Enzyme of Strain N75 [5]	Product of transferring reaction, Enzyme of Stain A19 [6]	Product of transferring reaction, Enzyme of Strain S1 [7]	Product of transferring reaction, Enzyme of Strain C11 [8]	Product of transferring reaction, Enzyme of Strain C9 [9]	Product of transferring reaction, Enzyme of Strain N75 [10]
OC[C@H]1O[C@H](OC[C@H]2O[C@H](OC[C@H]3OC(O)[C@H](O)[C@@H](O)[C@@H]3O)[C@H](O)[C@@H](O)[C@@H]2O)[C@H](O)[C@@H](O)[C@@H]1O (some centres unmarked) [Isomaltotriose, isomaltotriose]	−	−	−	−	−	+ (a saccharide-transferred product was formed in an amount of over one percent but below 10% to the total sugars)	++ (a saccharide-transferred product was formed in an amount of over 10% to the total sugars)	+ (a saccharide-transferred product was formed in an amount of over one percent but below 10% to the total sugars)	+ (a saccharide-transferred product was formed in an amount of over one percent but below 10% to the total sugars)	+ (a saccharide-transferred product was formed in an amount of over one percent but below 10% to the total sugars)
OC[C@H]1O[C@H](O[C@H]2[C@H](O)[C@@H](O)[C@@H](OC[C@H]3OC(O)[C@H](O)[C@@H](O)[C@@H]3O)O[C@@H]2CO)[C@H](O)[C@@H](O)[C@@H]1O (some centres unmarked) [Isopanose, isopanose]	−	−	−	−	−	+ (a saccharide-transferred product was formed in an amount of over one percent but below 10% to the total sugars)	+ (a saccharide-transferred product was formed in an amount of over one percent but below 10% to the total sugars)	+ (a saccharide-transferred product was formed in an amount of over one percent but below 10% to the total sugars)	+ (a saccharide-transferred product was formed in an amount of over one percent but below 10% to the total sugars)	+ (a saccharide-transferred product was formed in an amount of over one percent but below 10% to the total sugars)
OC[C@H]1O[C@H](OC[C@H]2OC(O)[C@H](O)[C@@H](O)[C@@H]2O)[C@H](O)[C@@H](O)[C@@H]1O (some centres unmarked) [Isomaltose, isomaltose]	−	−	−	−	−	++ (a saccharide-transferred product was formed in an amount of over 10% to the total sugars)	++ (a saccharide-transferred product was formed in an amount of over 10% to the total sugars)	++ (a saccharide-transferred product was formed in an amount of over 10% to the total sugars)	++ (a saccharide-transferred product was formed in an amount of over 10% to the total sugars)	++ (a saccharide-transferred product was formed in an amount of over 10% to the total sugars)

Further lines, with some results ahead:

Enzymatic action for forming cyclotetrasaccharide, Enzyme of Strain A19 [1]	Enzymatic action for forming cyclotetrasaccharide, Enzyme of Strain S1 [2]	Enzymatic action for forming cyclotetrasaccharide, Enzyme of Strain C11 [3]	Enzymatic action for forming cyclotetrasaccharide, Enzyme of Strain C9 [4]	Enzymatic action for forming cyclotetrasaccharide, Enzyme of Strain N75 [5]	SMILES	Product of transferring reaction, Enzyme of Stain A19 [6]	Product of transferring reaction, Enzyme of Strain S1 [7]	Product of transferring reaction, Enzyme of Strain C11 [8]	Product of transferring reaction, Enzyme of Strain C9 [9]	Product of transferring reaction, Enzyme of Strain N75 [10]
−	−	−	−	−	OC[C@H]1O[C@H](O[C@H]2[C@H](O)[C@@H](O)[C@@H](O[C@H]3[C@H](O)[C@@H](O)[C@@H](O[C@H]4[C@H](O)[C@@H](O)C(O)O[C@@H]4CO)O[C@@H]3CO)O[C@@H]2CO)[C@H](O)[C@@H](O)[C@@H]1O (some centres unmarked) [Maltotetraose, maltotetraose]	+ (a saccharide-transferred product was formed in an amount of over one percent but below 10% to the total sugars)	+ (a saccharide-transferred product was formed in an amount of over one percent but below 10% to the total sugars)	+ (a saccharide-transferred product was formed in an amount of over one percent but below 10% to the total sugars)	+ (a saccharide-transferred product was formed in an amount of over one percent but below 10% to the total sugars)	+ (a saccharide-transferred product was formed in an amount of over one percent but below 10% to the total sugars)
−	−	−	−	−	OC[C@H]1O[C@@H](O[C@H]2[C@H](O)[C@@H](O)C(O)O[C@@H]2CO)[C@H](O)[C@@H](O)[C@H]1O (some centres unmarked) [Lactose, lactose]	+ (a saccharide-transferred product was formed in an amount of over one percent but below 10% to the total sugars)	+ (a saccharide-transferred product was formed in an amount of over one percent but below 10% to the total sugars)	+ (a saccharide-transferred product was formed in an amount of over one percent but below 10% to the total sugars)	+ (a saccharide-transferred product was formed in an amount of over one percent but below 10% to the total sugars)	+ (a saccharide-transferred product was formed in an amount of over one percent but below 10% to the total sugars)
